Experimental data as given in patent publication US20140155415A1, “BENZ[…] BENZODIOXINE COMPOUNDS THAT INTERACT WITH G[…] FOR THE TREATMENT OF DIABETES” (priority 2011, published 2014).

Legend:
[1] = molecular target: T1, GK-GKRP (glucokinase / glucokinase regulatory protein) (Homo sapiens, UniProt Q14397); experiment: GKRP LC MS/MS Biochemical Assay (LCMS/MS); conditions: formation of 13C-glucose-6-phosphate from 13C-glucose by LC MS/MS, human His-hepatic GK, fructose-6-phosphate
T1 sequence (Q14397 1-625): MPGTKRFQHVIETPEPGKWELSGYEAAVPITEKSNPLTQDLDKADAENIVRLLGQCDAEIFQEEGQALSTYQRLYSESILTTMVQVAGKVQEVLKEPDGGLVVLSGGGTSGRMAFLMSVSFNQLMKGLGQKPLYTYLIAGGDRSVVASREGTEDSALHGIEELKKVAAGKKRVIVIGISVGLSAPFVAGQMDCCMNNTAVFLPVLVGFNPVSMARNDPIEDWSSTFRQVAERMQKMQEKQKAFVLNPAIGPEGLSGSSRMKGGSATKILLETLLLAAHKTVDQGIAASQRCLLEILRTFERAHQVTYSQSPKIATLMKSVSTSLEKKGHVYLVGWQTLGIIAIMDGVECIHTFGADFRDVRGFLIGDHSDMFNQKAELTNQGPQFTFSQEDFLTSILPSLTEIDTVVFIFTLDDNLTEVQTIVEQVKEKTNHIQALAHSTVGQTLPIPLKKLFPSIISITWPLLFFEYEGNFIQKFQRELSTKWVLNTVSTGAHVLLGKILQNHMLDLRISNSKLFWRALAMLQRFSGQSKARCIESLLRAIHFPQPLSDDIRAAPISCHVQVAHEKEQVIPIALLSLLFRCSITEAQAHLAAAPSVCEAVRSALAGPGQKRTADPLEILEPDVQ
In short: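 Human His-tagged hepatic GK (30 nM working stock, 5×) with GKRP in 50 mM Tris pH 7.5, 4 mM MgCl2, 6% DMSO; compound preincubated 30 min, then GK added for 30 min at room temperature. Acetonitrile-stopped; 13C-glucose-6-phosphate formed from 13C-glucose quantified by LC MS/MS.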

[2] = molecular target: T2, GK-GKRP (interaction between glucokinase and glucokinase regulatory protein) (Homo sapiens, UniProt Q14397); experiment: GK-GKRP Binding Assay (Binding), AlphaScreen; conditions: avi-tagged GKRP, GK-fluorescein, AlphaScreen beads, 1 μM sorbitol-6-phosphate; read-out: GK-GKRP IC50 (Binding)
T2 construct: made in house; host or cells: GKRP: baculovirus system
T2 sequence (Q14397 1-625): T1 sequence (Q14397 1-625)
In short: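 Biotinylated, C-terminally avi-tagged human GKRP was preincubated 20 min at room temperature with compound, then fluorescein-labelled human hepatic GK was added (6 nM in the added buffer). The mix was incubated 2 h at room temperature in the dark before AlphaScreen reading. Buffer was 20 mM Tris pH 7.5, 0.05% BSA, 1 mM DTT, 1 μM sorbitol-6-phosphate.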

| Structure (SMILES) | EC50 [1] | IC50 [2] |
| --- | --- | --- |
| O=S(=O)(N[C@H](c1ccccn1)c1cc2ccccc2o1)c1ccc2c(c1)OCCCO2 (single isomer, unassigned) [Example 25 Peak #2] | 290 nM | 210 nM |
| O=S(=O)(NC(c1cc2ccccc2o1)c1ccccc1I)c1ccc2c(c1)OCCCO2 (racemic) [Example 21, N-(1-benzofuran-2-yl(2-iodophenyl)methyl)-3,4-dihydro-2H-1,5-benzodioxepine-7-sulfonamide] | 76 nM | 228 nM |
| COc1ccc2sc(C(NS(=O)(=O)c3ccc4c(c3)OCCCO4)c3ccccc3)cc2c1 (racemic) [Example 58, N-((5-methoxy-1-benzothiophen-2-yl)(phenyl)methyl)-3,4-dihydro-2H-1,5-benzodioxepine-7-sulfonamide] | 200 nM | 790 nM |
| C=Cc1ccccc1C(NS(=O)(=O)c1ccc2c(c1)OCCCO2)c1cc2ccccc2o1 (racemic) [Example 7, N-(1-benzofuran-2-yl(2-ethenylphenyl)methyl)-3,4-dihydro-2H-1,5-benzodioxepine-7-sulfonamide] | 45 nM | 98 nM |
| Cc1ccc(F)cc1C(NS(=O)(=O)c1ccc2c(c1)OCCCO2)c1cc2ccccc2o1 (racemic) [Example 4, N-(1-benzofuran-2-yl(5-fluoro-2-methylphenyl)methyl)-3,4-dihydro-2H-1,5-benzodioxepine-7-sulfonamide] | 460 nM | 1400 nM |
| O=S(=O)(NC(c1ccccn1)c1cc2ccccc2o1)c1ccc2c(c1)OCCCO2 (racemic) [Example 25, N-(1-benzofuran-2-yl(2-pyridinyl)methyl)-3,4-dihydro-2H-1,5-benzo dioxepine-7-sulfonamide] | 270 nM | 1400 nM |
| O=S(=O)(N[C@H](c1cc2ccccc2o1)c1ccccc1I)c1ccc2c(c1)OCCCO2 (single isomer, unassigned) [Example 21 Peak #1] | > 20000 nM | > 33000 nM |
| CSc1ccccc1C(NS(=O)(=O)c1ccc2c(c1)OCCCO2)c1cc2ccccc2o1 (racemic) [Example 19, N-(1-benzofuran-2-yl(2-(methylsulfanyl)phenyl)methyl)-3,4-dihydro-2H-1,5-benzodioxepine-7-sulfonamide] | 38 nM | 160 nM |
| O=S(=O)(N[C@H](c1ccccc1)c1cc2cccc(-c3ccccn3)c2s1)c1ccc2c(c1)OCCCO2 (single isomer, unassigned) [Example 71 Peak #2] | 120 nM | 350 nM |
| COc1cccnc1C(NS(=O)(=O)c1ccc2c(c1)OCCCO2)c1nc2ccccc2s1 (racemic) [Example 53, N-(1,3-benzothiazol-2-yl(3-methoxy-2-pyridinyl)methyl)-3,4-dihydro-2H-1,5-benzodioxepine-7-sulfonamide] | 360 nM | 270 nM |
| CSc1ccccc1C(NS(=O)(=O)c1ccc2c(c1)OCCCO2)c1nc2cccnc2s1 (racemic) [Example 65, N-((2-(methylsulfanyl)phenyl)([1,3]thiazolo[5,4-b]pyridin-2-yl)methyl)-3,4-dihydro-2H-1,5-benzodioxepine-7-sulfonamide] | 37 nM | 9 nM |
| O=S(=O)(NC(c1ccccc1)c1cc2cc(O)ccc2s1)c1ccc2c(c1)OCCCO2 (racemic) [Example 63, N-((5-hydroxy-1-benzothiophen-2-yl)(phenyl)methyl)-3,4-dihydro-2H-1,5-benzodioxepine-7-sulfonamide] | 3200 nM | 4200 nM |
| O=S(=O)(NC(c1ccccc1)c1cc2cccc(-c3ccccc3)c2s1)c1ccc2c(c1)OCCCO2 (racemic) [Example 73, N-(phenyl(7-phenyl-1-benzothiophen-2-yl)methyl)-3,4-dihydro-2H-1,5-benzodioxepine-7-sulfonamide] | 1000 nM | 1200 nM |
| O=S(=O)(N[C@@H](c1cc2ccccc2o1)c1ccccc1I)c1ccc2c(c1)OCCCO2 (single isomer, unassigned) [Example 21 Peak #2] | 42 nM | 40 nM |
| O=S(=O)(NC(c1ncccn1)c1cc2ccccc2o1)c1ccc2c(c1)OCCCO2 (racemic) [Example 29, N-(1-benzofuran-2-yl(2-pyrimidinyl)methyl)-3,4-dihydro-2H-1,5-benzodioxepine-7-sulfonamide] | 990 nM | 1800 nM |
| O=S(=O)(NC(c1cc2ccccc2o1)c1ccccc1OC(F)(F)F)c1ccc2c(c1)OCCCO2 (racemic) [Example 18, N-(1-benzofuran-2-yl(2-(trifluoromethoxy)phenyl)methyl)-3,4-dihydro-2H-1,5-benzodioxepine-7-sulfonamide] | 340 nM | 970 nM |
| COc1ccccc1[C@H](NS(=O)(=O)c1ccc2c(c1)OCCCO2)c1cc2ccccc2o1 (single isomer, unassigned) [Example 17 Peak #1] | 6100 nM | 1200 nM |
| Cc1cccc(C)c1C(NS(=O)(=O)c1ccc2c(c1)OCCCO2)c1cc2ccccc2o1 (racemic) [Example 10, N-(1-benzofuran-2-yl(2,6-dimethylphenyl)methyl)-3,4-dihydro-2H-1,5-benzodioxepine-7-sulfonamide] | 3800 nM | 4100 nM |
| O=S(=O)(NC(c1cc2ccccc2o1)c1nccs1)c1ccc2c(c1)OCCCO2 (racemic) [Example 34, N-(1-benzofuran-2-yl(1,3-thiazol-2-yl)methyl)-3,4-dihydro-2H-1,5-benzodioxepine-7-sulfonamide] | 2800 nM | 6600 nM |
| COc1ccccc1C(NS(=O)(=O)c1ccc2c(c1)OCCCO2)c1nc2ccccc2s1 (racemic) [Example 51, N-(1,3-benzothiazol-2-yl(2-methoxyphenyl)methyl)-3,4-dihydro-2H-1,5-benzodioxepine-7-sulfonamide] | 68 nM | 42 nM |
| O=S(=O)(N[C@@H](c1ccccc1)c1cc2ccccc2s1)c1ccc2c(c1)OCCCO2 (single isomer, unassigned) [Example 57 Peak #1] | 700 nM | 3000 nM |
| COc1cccnc1C(NS(=O)(=O)c1ccc2c(c1)OCCCO2)c1cc2ccccc2s1 (racemic) [Example 43, N-(1-benzothiophen-2-yl(3-methoxy-2-pyridinyl)methyl)-3,4-dihydro-2H-1,5-benzodioxepine-7-sulfonamide] | 47 nM | 41 nM |
| Nc1cccc(C(NS(=O)(=O)c2ccc3c(c2)OCCCO3)c2cc3ccccc3o2)c1 (racemic) [Example 14, N-((3-aminophenyl)(1-benzofuran-2-yl)methyl)-3,4-dihydro-2H-1,5-benzodioxepine-7-sulfonamide] | 1600 nM | 1200 nM |
| O=S(=O)(N[C@H](c1cc2ccccc2o1)c1ccccc1Cl)c1ccc2c(c1)OCCCO2 (single isomer, unassigned) [Example 20 Peak #1] | > 20000 nM | 5700 nM |
| COc1ccccc1[C@H](NS(=O)(=O)c1ccc2c(c1)OCCCO2)c1cc2ccccc2s1 (single isomer, unassigned) [Example 40 Peak #1] | 130 nM | 360 nM |
| CCc1ccccc1C(NS(=O)(=O)c1ccc2c(c1)OCCCO2)c1cc2ccccc2s1 (racemic) [Example 37, N-(1-benzothiophen-2-yl(2-ethylphenyl)methyl)-3,4-dihydro-2H-1,5-benzodioxepine-7-sulfonamide] | 160 nM | 300 nM |
